Blank lines part the entries; values can stand above or below the molecule they belong to. Active and inactive are the calls of the source. The rule behind the calls is not given here.
Assays:
[1] = AUC in CD-1 mouse at 10 mg/kg, po administered as single dose via gavage by LC-MS/MS analysis; format: ADME, organism-based; parameters: dose 10 mg/kg; settings: in vivo
[2] = Oral bioavailability in CD-1 mouse at 10 mg/kg administered as single dose via gavage by LC-MS/MS analysis; format: ADME, organism-based; settings: in vivo
[3] = Tmax in CD-1 mouse at 10 mg/kg, po administered as single dose via gavage by LC-MS/MS analysis; format: ADME, organism-based; settings: in vivo
[4] = Cmax in CD-1 mouse at 10 mg/kg, po administered as single dose via gavage by LC-MS/MS analysis; format: ADME, organism-based; parameters: route oral, dose 10 mg/kg; settings: in vivo
[5] = Half life in CD-1 mouse at 10 mg/kg, po administered as single dose via gavage by LC-MS/MS analysis; format: ADME, organism-based; settings: in vivo
[6] = Tmax in Beagle dog at 10 mg/kg, po administered as single dose via gavage by LC-MS/MS analysis; format: ADME, organism-based, Canis lupus familiaris; settings: in vivo
[7] = Cmax in Beagle dog at 10 mg/kg, po administered as single dose via gavage by LC-MS/MS analysis; format: ADME, organism-based, Canis lupus familiaris; parameters: route oral, dose 10 mg/kg; settings: in vivo
[8] = AUC in Beagle dog at 10 mg/kg, po administered as single dose via gavage by LC-MS/MS analysis; format: ADME, organism-based, Canis lupus familiaris; parameters: dose 10 mg/kg; settings: in vivo
[9] = Half life in Beagle dog at 10 mg/kg, po administered as single dose via gavage by LC-MS/MS analysis; format: ADME, organism-based, Canis lupus familiaris; settings: in vivo
[10] = Oral bioavailability in Beagle dog at 10 mg/kg administered as single dose via gavage by LC-MS/MS analysis; format: ADME, organism-based, Canis lupus familiaris; settings: in vivo
HEC1/NEK2 (Homo sapiens) [11] = molecular target: T1, HEC1/NEK2 (Homo sapiens) (UniProt P51955+O14777); assay: Inhibition of Hec1-Nek2 protein-protein interaction in human K562 cells at 100 nM measured after 6 hrs by coimmunoprecipitation assay; format: cell-based
HEC1/NEK2 (Homo sapiens) [12] = molecular target: T1, HEC1/NEK2 (Homo sapiens); assay: Inhibition of Hec1-Nek2 protein-protein interaction in human K562 cells assessed as reduction in Nek2 level at 1 uM by Western blot analysis; format: cell-based; settings: TDE = time-dependent effect
HeLa [13] = assay: Induction of apoptosis in human HeLa cells assessed as increase in cleaved caspase 3 protein expression at 1 uM measured after 24 hrs by Western blot analysis; format: functional, cell-based
HeLa [14] = assay: Induction of apoptosis in human HeLa cells assessed as increase in cleaved PARP protein expression at 1 uM measured after 24 hrs by Western blot analysis; format: functional, cell-based
HeLa [15] = assay: Induction of apoptosis in human HeLa cells assessed as decrease in Mcl-1 expression at 1 uM measured after 24 hrs by Western blot analysis; format: functional, cell-based
HeLa [16] = assay: Induction of apoptosis in human HeLa cells assessed as decrease in XIAP expression at 1 uM measured after 24 hrs by Western blot analysis; format: functional, cell-based
HeLa [17] = assay: Induction of apoptosis in human HeLa cells assessed as decrease in cyclin A1 expression at 1 uM measured after 24 hrs by Western blot analysis; format: functional, cell-based
HeLa [18] = assay: Induction of apoptosis in human HeLa cells assessed as decrease in cyclin B1 expression at 1 uM measured after 24 hrs by Western blot analysis; format: functional, cell-based
HeLa [19] = assay: Induction of apoptosis in human HeLa cells assessed as decrease in cyclin D1 expression at 1 uM measured after 24 hrs by Western blot analysis; format: functional, cell-based
MES-SA/Dx5 = assay: Antiproliferative activity against human MES-SA/Dx5 cells measured after 96 hrs by CellTiter 96 Aqueous One Solution Reagent based assay; format: functional, cell-based
NCI/ADR-RES = assay: Antiproliferative activity against human NCI/ADR-RES cells measured after 96 hrs by CellTiter 96 Aqueous One Solution Reagent based assay; format: functional, cell-based
HeLa [20] = assay: Down regulation of Pgp expression in human HeLa cells; format: functional, cell-based
MDA-MB-231 = assay: Down regulation of Pgp expression in human MDA-MB-231 cells; format: functional, cell-based

T1 sequence (O14777 whole entry, looked up): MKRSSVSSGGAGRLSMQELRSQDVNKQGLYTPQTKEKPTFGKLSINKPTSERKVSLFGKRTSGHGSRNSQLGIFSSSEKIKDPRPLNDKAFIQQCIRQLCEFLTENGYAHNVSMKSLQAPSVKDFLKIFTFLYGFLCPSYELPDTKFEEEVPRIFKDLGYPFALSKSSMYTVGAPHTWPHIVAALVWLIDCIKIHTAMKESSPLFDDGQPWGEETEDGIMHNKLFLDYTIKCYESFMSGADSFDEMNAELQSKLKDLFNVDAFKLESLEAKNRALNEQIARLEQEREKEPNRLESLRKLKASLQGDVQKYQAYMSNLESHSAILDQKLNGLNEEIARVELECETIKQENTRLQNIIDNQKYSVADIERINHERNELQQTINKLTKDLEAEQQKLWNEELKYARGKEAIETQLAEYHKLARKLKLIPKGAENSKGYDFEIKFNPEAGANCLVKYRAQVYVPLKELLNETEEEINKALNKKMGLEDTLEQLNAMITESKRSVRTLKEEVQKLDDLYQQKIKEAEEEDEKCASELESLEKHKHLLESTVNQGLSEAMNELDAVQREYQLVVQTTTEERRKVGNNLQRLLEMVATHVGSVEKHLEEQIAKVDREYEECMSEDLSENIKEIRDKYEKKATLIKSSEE
T1 sequence (P51955 whole entry, looked up): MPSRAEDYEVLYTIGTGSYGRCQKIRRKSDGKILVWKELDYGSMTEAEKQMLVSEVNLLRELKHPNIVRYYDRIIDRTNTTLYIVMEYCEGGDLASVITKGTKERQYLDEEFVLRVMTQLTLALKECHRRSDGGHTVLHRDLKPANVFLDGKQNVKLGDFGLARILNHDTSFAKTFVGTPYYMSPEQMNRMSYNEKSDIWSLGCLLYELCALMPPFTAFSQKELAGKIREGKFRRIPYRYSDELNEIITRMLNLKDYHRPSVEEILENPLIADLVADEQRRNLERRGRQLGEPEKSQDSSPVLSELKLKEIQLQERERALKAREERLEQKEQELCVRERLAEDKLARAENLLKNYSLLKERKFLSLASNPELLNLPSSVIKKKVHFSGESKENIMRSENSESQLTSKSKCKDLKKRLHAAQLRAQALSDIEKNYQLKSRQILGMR

- AUC [1]: 62.5 µM·h
- bioavailability [2]: 77.4%
- Tmax [3]: 1 h
- Cmax [4]: 8.13 µM
- half-life [5]: 2.81 h
- Tmax [6]: 1 h
- Cmax [7]: 0.98 µM
- AUC [8]: 8.61 µM·h
- half-life [9]: 4.53 h
- bioavailability [10]: 24.9%
Compound: COCCOc1cnc(Sc2cc(C)c(-c3csc(NC(=O)c4ccncc4)n3)c(C)c2)cn1.Cc1ccc(S(=O)(=O)O)cc1

- inhibition (HEC1/NEK2 (Homo sapiens) [11]): Active
- Activity (HEC1/NEK2 (Homo sapiens) [12]): Tde
Compound: COCCOc1cnc(Sc2cc(C)c(-c3csc(NC(=O)c4ccncc4)n3)c(C)c2)cn1
- Activity (HeLa [13]): Active
- Activity (HeLa [14]): Active
- Activity (HeLa [15]): Active
- Activity (HeLa [16]): Active
- Activity (HeLa [17]): Active
- Activity (HeLa [18]): Active
- Activity (HeLa [19]): Active
- Activity (MES-SA/Dx5): Active
- Activity (NCI/ADR-RES): Active
- Activity (HeLa [20]): Active
- Activity (MDA-MB-231): Active

— ChEMBL document CHEMBL4680212, “Discovery of T-1101 tosylate as a first-in-class clinical candidate for Hec1/Nek2 inhibition in cancer therapy” (Eur J Med Chem, 2020)
